Assays:
Canis lupus familiaris [1] = test: Plasma protein binding of simvastatin following oral dose of simvastatin at 2 mg.Kg-1 level in dog; type: organism-based; set-up: dose 2 mg.Kg-1, dosed compound id 2.4681e+06, dosed compound name, dose level, study doses mg.Kg-1
[2] = Cmax of total HMG-CoA reductase inhibitor (both lactone and open acid) following administration of simvastatin tablet at 40 mg dose level in hypercholesterolemic patients; type: ADME, organism-based, Plasma; conditions: human, in vivo, po
[3] = Absorption of simvastatin following oral administration of simvastatin in dog; type: ADME, organism-based, Canis lupus familiaris; conditions: in vivo
[4] = Cmax of total HMG-CoA reductase inhibitor (both lactone and open acid) following administration of simvastatin tablet at 80 mg dose level in hypercholesterolemic patients; type: ADME, organism-based, Plasma; conditions: human, in vivo, po
[5] = Mean elimination half-life of simvastatin following administration of simvastatin 80 mg orally disintegrating tablet in healthy human; type: ADME, organism-based; conditions: plasma, po
[6] = Mean AUC (0-infinity) of simvastatin following administration of simvastatin 80 mg orally disintegrating tablet in healthy human; type: ADME, organism-based; conditions: plasma, po, read-out: AUC (0-infinity)
[7] = AUC of total HMG-CoA reductase inhibitor (both lactone and open acid) following administration of simvastatin tablet at 160 mg dose level in hypercholesterolemic patients; type: ADME, organism-based, Plasma; conditions: human, in vivo, po
[8] = Mean Cmax of simvastatin following administration of simvastatin 80 mg orally disintegrating tablet in healthy human; type: ADME, organism-based; conditions: plasma, po
[9] = Mean elimination half-life of simvastatin following administration of reference product Zocor 80 mg tablet in healthy human; type: ADME, organism-based; conditions: plasma, po
[10] = Mean elimination rate constant of simvastatin following administration of reference product Zocor 80 mg tablet in healthy human; type: ADME, organism-based; conditions: plasma, po
[11] = Absorption of simvastatin following oral administration of simvastatin in human; type: ADME, organism-based; conditions: in vivo
[12] = Mean Cmax of simvastatin following administration of reference product Zocor 80 mg tablet in healthy human; type: ADME, organism-based; conditions: plasma, po
[13] = AUC of total HMG-CoA reductase inhibitor (both lactone and open acid) following administration of simvastatin tablet at 40 mg dose level in hypercholesterolemic patients; type: ADME, organism-based, Plasma; conditions: human, in vivo, po
[14] = Mean AUC (0-t) of simvastatin following administration of reference product Zocor 80 mg tablet in healthy human; type: ADME, organism-based; conditions: plasma, po
[15] = AUC of total HMG-CoA reductase inhibitor (both lactone and open acid) following administration of simvastatin tablet at 80 mg dose level in hypercholesterolemic patients; type: ADME, organism-based, Plasma; conditions: human, in vivo, po
[16] = Absorption of simvastatin following oral administration of simvastatin in rat; type: ADME, organism-based; conditions: in vivo
[17] = Mean AUC (0-infinity) of simvastatin following administration of reference product Zocor 80 mg tablet in healthy human; type: ADME, organism-based; conditions: plasma, po, read-out: AUC (0-infinity)
[18] = Cmax of total HMG-CoA reductase inhibitor (both lactone and open acid) following administration of simvastatin tablet at 160 mg dose level in hypercholesterolemic patients; type: ADME, organism-based, Plasma; conditions: human, in vivo, po
[19] = Mean AUC (0-t) of simvastatin following administration of simvastatin 80 mg orally disintegrating tablet in healthy human; type: ADME, organism-based; conditions: plasma, po
Homo sapiens [20] = test: Plasma protein binding of simvastatin following oral dose of simvastatin at […] level in human; type: organism-based; set-up: dose 40 mg, dosed compound id 2.4681e+06, dosed compound name, dose level, study doses mg
[21] = Mean elimination rate constant of simvastatin following administration of simvastatin 80 mg orally disintegrating tablet in healthy human; type: ADME, organism-based; conditions: plasma, po
[22] = Mean AUC (0-t) of simvastatin acid following administration of reference product Zocor 80 mg tablet in healthy human; type: ADME, organism-based, Plasma; conditions: in vivo, po
[23] = AUC of active HMG-CoA reductase inhibitor L-654,969 following administration of simvastatin tablet at 40 mg dose level in hypercholesterolemic patients; type: ADME, organism-based, Plasma; conditions: human, in vivo, po
[24] = Tmax of active HMG-CoA reductase inhibitor L-654,969 following administration of simvastatin tablet at 40 mg dose level in hypercholesterolemic patients; type: ADME, organism-based, Plasma; conditions: human, in vivo, po
[25] = Bioavailability of active beta-hydroxy acid form of simvastatin following oral administration of simvastatin in dog; type: ADME, organism-based, Canis lupus familiaris; conditions: in vivo
[26] = Extensive biliary excretion of active beta-hydroxy acid form of simvastatin following oral administration of simvastatin in dog; type: ADME, organism-based, Canis lupus familiaris, Bile; conditions: in vivo
[27] = Hepatic extraction of active beta-hydroxy acid form of simvastatin following oral administration of simvastatin in rat; type: ADME, organism-based, Liver; conditions: in vivo
[28] = Extrahepatic tissue penetration of active beta-hydroxy acid form of simvastatin following oral administration of simvastatin in rat; type: ADME, organism-based; conditions: in vivo
[29] = Extrahepatic tissue penetration of active beta-hydroxy acid form of simvastatin following oral administration of simvastatin in dog; type: ADME, organism-based, Canis lupus familiaris; conditions: in vivo
[30] = Mean Cmax of simvastatin acid following administration of reference product Zocor 80 mg tablet in healthy human; type: ADME, organism-based, Plasma; conditions: in vivo, po
[31] = Mean AUC (0-infinity) of simvastatin acid following administration of reference product Zocor 80 mg tablet in healthy human; type: ADME, organism-based, Plasma; conditions: in vivo, po
[32] = Mean elimination half-life of simvastatin acid following administration of simvastatin 80 mg orally disintegrating tablet in healthy human; type: ADME, organism-based, Plasma; conditions: in vivo, po
[33] = Hepatic extraction of active beta-hydroxy acid form of simvastatin following oral administration of simvastatin in dog; type: ADME, organism-based, Canis lupus familiaris, Liver; conditions: in vivo
[34] = AUC of active HMG-CoA reductase inhibitor L-654,969 following administration of simvastatin tablet at 80 mg dose level in hypercholesterolemic patients; type: ADME, organism-based, Plasma; conditions: human, in vivo, po
[35] = Extensive biliary excretion of active beta-hydroxy acid form of simvastatin following oral administration of simvastatin in human; type: ADME, organism-based, Bile; conditions: in vivo
[36] = Hepatic extraction of active beta-hydroxy acid form of simvastatin following oral administration of simvastatin in human; type: ADME, organism-based, Liver; conditions: in vivo
[37] = Mean Tmax of simvastatin acid following administration of reference product Zocor 80 mg tablet in healthy human; type: ADME, organism-based, Plasma; conditions: in vivo, po
Homo sapiens [38] = test: Plasma protein binding of simvastatin acid following oral dose of simvastatin at […] level in human; type: organism-based; set-up: dose 40 mg, dosed compound id 2.4681e+06, dosed compound name, dose level, study doses mg
[39] = Extrahepatic tissue penetration of active beta-hydroxy acid form of simvastatin following oral administration of simvastatin in human; type: ADME, organism-based; conditions: in vivo
[40] = Cmax of active HMG-CoA reductase inhibitor L-654,969 following administration of simvastatin tablet at 80 mg dose level in hypercholesterolemic patients; type: ADME, organism-based, Plasma; conditions: human, in vivo, po
[41] = Tmax of active HMG-CoA reductase inhibitor L-654,969 following administration of simvastatin tablet at 80 mg dose level in hypercholesterolemic patients; type: ADME, organism-based, Plasma; conditions: human, in vivo, po
Canis lupus familiaris [42] = test: Plasma protein binding of simvastatin acid following oral dose of simvastatin at 2 mg.Kg-1 level in dog; type: organism-based; set-up: dose 2 mg.Kg-1, dosed compound id 2.4681e+06, dosed compound name, dose level, study doses mg.Kg-1
[43] = Tmax of active HMG-CoA reductase inhibitor L-654,969 following administration of simvastatin tablet at 160 mg dose level in hypercholesterolemic patients; type: ADME, organism-based, Plasma; conditions: human, in vivo, po
[44] = Bioavailability of active beta-hydroxy acid form of simvastatin following oral administration of simvastatin in human; type: ADME, organism-based; conditions: in vivo
[45] = Mean Cmax of simvastatin acid following administration of simvastatin 80 mg orally disintegrating tablet in healthy human; type: ADME, organism-based, Plasma; conditions: in vivo, po
[46] = Mean Tmax of simvastatin acid following administration of simvastatin 80 mg orally disintegrating tablet in healthy human; type: ADME, organism-based, Plasma; conditions: in vivo, po
[47] = Cmax of active HMG-CoA reductase inhibitor L-654,969 following administration of simvastatin tablet at 160 mg dose level in hypercholesterolemic patients; type: ADME, organism-based, Plasma; conditions: human, in vivo, po
[48] = Mean AUC (0-infinity) of simvastatin acid following administration of simvastatin 80 mg orally disintegrating tablet in healthy human; type: ADME, organism-based, Plasma; conditions: in vivo, po
[49] = Extensive biliary excretion of active beta-hydroxy acid form of simvastatin following oral administration of simvastatin in rat; type: ADME, organism-based, Bile; conditions: in vivo
[50] = Cmax of active HMG-CoA reductase inhibitor L-654,969 following administration of simvastatin tablet at 40 mg dose level in hypercholesterolemic patients; type: ADME, organism-based, Plasma; conditions: human, in vivo, po
[51] = AUC of active HMG-CoA reductase inhibitor L-654,969 following administration of simvastatin tablet at 160 mg dose level in hypercholesterolemic patients; type: ADME, organism-based, Plasma; conditions: human, in vivo, po
[52] = Mean AUC (0-t) of simvastatin acid following administration of simvastatin 80 mg orally disintegrating tablet in healthy human; type: ADME, organism-based, Plasma; conditions: in vivo, po
[53] = Mean elimination rate constant of simvastatin acid following administration of simvastatin 80 mg orally disintegrating tablet in healthy human; type: ADME, organism-based, Plasma; conditions: in vivo, po
[54] = Mean elimination rate constant of simvastatin acid following administration of reference product Zocor 80 mg tablet in healthy human; type: ADME, organism-based, Plasma; conditions: in vivo, po
[55] = Bioavailability of active beta-hydroxy acid form of simvastatin following oral administration of simvastatin in rat; type: ADME, organism-based; conditions: in vivo
[56] = Mean elimination half-life of simvastatin acid following administration of reference product Zocor 80 mg tablet in healthy human; type: ADME, organism-based, Plasma; conditions: in vivo, po

In the case of `CCC(C)(C)C(=O)O[C@H]1C[C@@H](C)C=C2C=C[C@H](C)[C@H](CC[C@@H]3C[C@@H](O)CC(=O)O3)[C@H]21` [SIMVASTATIN], the PPB (Canis lupus familiaris [1]) is reported as 97%, the Cmax [2] is reported as 75 ng.eq.ml-1 and the Absorption [3] is reported as “Simvastatin is well absorbed in dogs”. It also gave a Cmax [4] of 165 ng.eq.ml-1, a half-life [5] of 9.39 h and an AUC(0-inf) [6] of 98.5 ng·h/mL. It also gave an AUC [7] of 1533 ng.eq.h.ml-1, a Cmax [8] of 18.3 ng/mL and a half-life [9] of 10.1 h. The k el [10] was 3.02e-05 s⁻¹, the Absorption [11] was “Simvastatin is well absorbed in humans” and the Cmax [12] was 19.4 ng/mL. For the same compound, the AUC [13] was 316 ng.eq.h.ml-1, the AUC(0-t) [14] was 83.9 ng·h/mL and the AUC [15] was 636 ng.eq.h.ml-1. For the same compound, the Absorption [16] was “Simvastatin is well absorbed in rats”, the AUC(0-inf) [17] was 102 ng·h/mL and the Cmax [18] was 404 ng.eq.ml-1. The AUC(0-t) [19] was 77.6 ng·h/mL, the PPB (Homo sapiens [20]) was 97% and the k el [21] was 4.16e-05 s⁻¹.
In the case of `CCC(C)(C)C(=O)O[C@H]1C[C@@H](C)C=C2C=C[C@H](C)[C@H](CC[C@@H](O)C[C@@H](O)CC(=O)O)[C@H]21` [TENIVASTATIN], the “AUC(0-t)” value [22] is reported as 36.61 ng·h/mL, the AUC [23] is reported as 120 ng.eq.h.ml-1 and the Tmax [24] is reported as 1.8 h. The F [25] was “The active beta-hydroxyacid form of simvastatin is poorly bioavailable in dogs”, the Compound recovery [26] was “OUTCOME = Observed, VALUE = Biliary excretion of active beta-hydroxyacid form of simvastatin is extensive” and the Hepatic extraction [27] was “VALUE = Hepatic extraction of active beta-hydroxyacid form of simvastatin is high”. The Compound recovery [28] was “VALUE = Extrahepatic tissue penetration of active beta-hydroxyacid form of simvastatin is relatively poor”, the Compound recovery [29] was “VALUE = Extrahepatic tissue penetration of active beta-hydroxyacid form of simvastatin is relatively poor” and the Cmax [30] was 3.88 ng/mL. The “AUC (0-infinity)” value [31] was 47.76 ng·h/mL, the t1/2 [32] was 5.95 h and the Hepatic extraction [33] was “VALUE = Hepatic extraction of active beta-hydroxyacid form of simvastatin is high”. For the same compound, the AUC [34] was 263 ng.eq.h.ml-1, the Compound recovery [35] was “OUTCOME = Observed, VALUE = Biliary excretion of active beta-hydroxyacid form of simvastatin is extensive” and the Hepatic extraction [36] was “VALUE = Hepatic extraction of active beta-hydroxyacid form of simvastatin is high”. The Tmax [37] was 4.35 h, the PPB (Homo sapiens [38]) was 93% and the Compound recovery [39] was “VALUE = Extrahepatic tissue penetration of active beta-hydroxyacid form of simvastatin is relatively poor”. The Cmax [40] was 50 ng.eq.ml-1, the Tmax [41] was 1.8 h and the PPB (Canis lupus familiaris [42]) was 93%. The Tmax [43] was 1.8 h, the F [44] was “The active beta-hydroxyacid form of simvastatin is poorly bioavailable in humans” and the Cmax [45] was 4.5 ng/mL. For the same compound, the Tmax [46] was 4.42 h, the Cmax [47] was 138 ng.eq.ml-1 and the “AUC (0-infinity)” value [48] was 41.54 ng·h/mL. For the same compound, the Compound recovery [49] was “OUTCOME = Observed, VALUE = Biliary excretion of active beta-hydroxyacid form of simvastatin is extensive”, the Cmax [50] was 21 ng.eq.ml-1 and the AUC [51] was 668 ng.eq.h.ml-1. For the same compound, the “AUC(0-t)” value [52] was 37.67 ng·h/mL, the Kel [53] was 0.1554 h⁻¹ and the Kel [54] was 0.1357 h⁻¹. The F [55] was “The active beta-hydroxyacid form of simvastatin is poorly bioavailable in rats” and the t1/2 [56] was 8.67 h.

Reference: ChEMBL document CHEMBL3508574 (2016)
